Where a chain is given by its changes, count along the chain named.
How the values were obtained:
Assay in all cases: cAMP accumulation assay (LANCE Ultra cAMP kit), GIPR WT, mutant or modified constructs
Format in all cases: cell-based
Parameters in all cases: acylated tirzepatide to the full-length or modified; Flag; expressed in transfected cells; host or cells: HEK293T
GIPR [1] = molecular target: T1, GIPR (Homo sapiens, UniProt P48546, D191A); conditions: HEK-293T, GIPR D191A; HEK293T
T1 sequence (P48546 22-466 D191A): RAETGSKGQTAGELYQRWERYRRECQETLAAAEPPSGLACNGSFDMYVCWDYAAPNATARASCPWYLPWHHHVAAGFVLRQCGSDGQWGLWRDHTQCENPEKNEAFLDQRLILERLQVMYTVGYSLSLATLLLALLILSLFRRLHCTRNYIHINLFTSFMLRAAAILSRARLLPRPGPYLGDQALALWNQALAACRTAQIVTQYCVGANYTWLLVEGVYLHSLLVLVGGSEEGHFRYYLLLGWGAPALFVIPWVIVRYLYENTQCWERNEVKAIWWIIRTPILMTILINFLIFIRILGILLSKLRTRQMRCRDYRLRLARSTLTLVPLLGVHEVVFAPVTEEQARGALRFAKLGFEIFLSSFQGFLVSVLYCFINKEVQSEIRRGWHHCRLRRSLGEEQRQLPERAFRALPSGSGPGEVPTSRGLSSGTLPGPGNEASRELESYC
In short: (§1)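 HEK293T cells transiently transfected with human GIPR WT or mutant constructs (pcDNA3.1), used after 24 h. The cells were stimulated with peptide agonists for 40 min at RT in HBSS with 5 mM HEPES, 0.1% BSA or casein, and 0.5 mM IBMX. cAMP was read by LANCE Ultra TR-FRET (Eu-cAMP tracer/ULight anti-cAMP, 1 h RT, 620/650 nm).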

GIPR [2] = molecular target: T2, GIPR (Homo sapiens, UniProt P48546, Y141A); conditions: GIPR Y141A, HEK293T
T2 sequence (P48546 22-466 Y141A): T1 sequence (P48546 22-466 D191A) with Y120A, A170D
In short: as §1

GIPR [3] = molecular target: T3, GIPR (Homo sapiens, UniProt P48546, F127A); conditions: GIPR F127A, HEK293T
T3 sequence (P48546 22-466 F127A): T1 sequence (P48546 22-466 D191A) with F106A, A170D
In short: as §1

[4] = read-out: cAMP pEC50 (converted)

CCCCCCCCCCCCCCCC(=O)N[C@@H](CCC(=O)NCCCC[C@H](NC(=O)[C@H](CC(=O)O)NC(=O)[C@H](CO)NC(=O)[C@@H](NC(=O)[C@H](Cc1ccccc1)NC(=O)[C@@H](NC(=O)CNC(=O)[C@H](CCC(N)=O)NC(=O)C(C)(C)NC(=O)[C@@H](N)Cc1c[nH]cn1)[C@@H](C)O)[C@@H](C)O)C(=O)N[C@@H](CO)C(=O)N[C@@H](CCCCN)C(=O)N[C@@H](Cc1ccc(O)cc1)C(=O)N[C@@H](CC(C)C)C(=O)N[C@@H](CC(=O)O)C(=O)N[C@@H](CCC(=O)O)C(=O)N[C@@H](CCCNC(=N)N)C(=O)N[C@@H](C)C(=O)N[C@@H](C)C(=O)N[C@@H](CCC(N)=O)C(=O)N[C@@H](CC(=O)O)C(=O)N[C@@H](Cc1ccccc1)C(=O)N[C@H](C(=O)N[C@@H](CCC(N)=O)C(=O)N[C@@H](Cc1c[nH]c2ccccc12)C(=O)N[C@@H](CC(C)C)C(=O)N[C@@H](CC(C)C)C(=O)N[C@@H](CC(=O)O)C(=O)NCC(=O)NCC(=O)N1CCC[C@H]1C(=O)N[C@@H](CO)C(=O)N[C@@H](CO)C(=O)NCC(=O)N[C@@H](C)C(=O)N1CCC[C@H]1C(=O)N1CCC[C@H]1C(=O)N1CCC[C@H]1C(=O)N[C@@H](CO)C(N)=O)C(C)C)C(=O)O [Peptide 20]
Emax (GIPR [1]): 51.7 ± 5.96%
EC50 (GIPR [2]; [4]): 3.72 nM
Emax (GIPR [2]; HEK-293T): 75.1 ± 1.79%
EC50 (GIPR [3]; [4]): 0.00457 nM
Emax (GIPR [3]; HEK-293T): 100 ± 1.64%
